Reference: ChEMBL document CHEMBL5244222, “A comprehensive review on xanthone derivatives as α-glucosidase inhibitors” (Eur J Med Chem, 2018)
Converted amounts (≈) assume the structure as drawn.

Assays:
[1] = target: T1, Alpha-glucosidase (Saccharomyces cerevisiae S288c, UniProt P53341+P38158+P07265); assay: Inhibition of Saccharomyces cerevisiae alpha-glucosidase using PNPG as substrate preincubated for 15 mins followed by substrate addition and measured after 30 mins by spectrophotometric assay; format: protein assay
[2] = target: T1, Alpha-glucosidase; assay: Inhibition of Saccharomyces cerevisiae alpha-glucosidase using PNPG as substrate incubated for 30 mins by spectrophotometric assay; format: protein assay
[3] = target: T1, Alpha-glucosidase; assay: Inhibition of Saccharomyces cerevisiae alpha-glucosidase using maltose as substrate incubated for 30 mins by spectrophotometric assay; format: protein assay
[4] = target: T1, Alpha-glucosidase; assay: Mixed-type inhibition of Saccharomyces cerevisiae alpha-glucosidase using PNPG as substrate incubated for 30 mins by Lineweaver-Burk double-reciprocal plot analysis; format: protein assay
[5] = target: T2, Alpha glucosidase (Homo sapiens, UniProt O43451+P10253+P14410+Q2M2H8); assay: Inhibition of alpha-glucosidase (unknown origin) using PNPG as substrate incubated for 30 mins by absorbance assay; format: protein assay
[6] = target: T1, Alpha-glucosidase; assay: Inhibition of Saccharomyces cerevisiae alpha-glucosidase assessed as release of p-nitrophenol using pNPG as substrate preincubated for 5 mins followed by substrate addition and measured after 30 mins by absorbance assay; format: protein assay
[7] = target: T2, Alpha glucosidase; assay: Inhibition of alpha-glucosidase (unknown origin) at 100 uM; format: protein assay
[8] = target: T1, Alpha-glucosidase; assay: Inhibition of Saccharomyces cerevisiae alpha-glucosidase assessed as release of p-nitrophenol using pNPG as substrate preincubated for 15 mins followed by substrate addition and measured after 15 mins by spectrophotometric analysis; format: protein assay
[9] = Inhibition of rice alpha-glucosidase using p-nitrophenyl-alpha-D-glucopyranoside as substrate preincubated for 15 mins followed by substrate addition and measured after 90 mins by spectroscopic analysis
[10] = target: T2, Alpha glucosidase; assay: Inhibition of alpha-glucosidase (unknown origin) at 40 uM; format: protein assay
[11] = Inhibition of rat intestine alpha-glucosidase using p-nitrophenyl-alpha-D-glucopyranoside as substrate preincubated for 10 mins followed by substrate addition and measured after 5 mins by spectroscopic analysis; format: tissue-based
[12] = species on record: Rattus norvegicus; assay: Inhibition of rat intestine alpha-glucosidase using MUG as substrate at 65 uM preincubated for 15 mins followed by substrate addition and measured after 30 mins by fluorescence microplate reader analysis; format: tissue-based; details: time 45.0 min
[13] = target: T2, Alpha glucosidase; assay: Inhibition of alpha-glucosidase (unknown origin) using PNPG as substrate preincubated for 15 mins followed by substrate addition by microplate reader assay; format: protein assay
[14] = species on record: Rattus norvegicus; assay: Inhibition of rat intestine alpha-glucosidase using MUG as substrate at 100 uM preincubated for 15 mins followed by substrate addition and measured after 30 mins by fluorescence microplate reader analysis; format: tissue-based; details: time 45.0 min
[15] = target: T1, Alpha-glucosidase; assay: Inhibition of Saccharomyces cerevisiae alpha-glucosidase assessed as release of p-nitrophenol using pNPG as substrate preincubated for 15 mins followed by substrate addition and measured after 15 mins by plate reader analysis; format: protein assay
[16] = target: T1, Alpha-glucosidase; assay: Inhibition of Saccharomyces cerevisiae alpha-glucosidase assessed as release of p-nitrophenol using pNPG as substrate preincubated for 15 mins followed by substrate addition and measured after 30 mins by spectrophotometric analysis; format: protein assay
[17] = target: T1, Alpha-glucosidase; assay: Inhibition of Saccharomyces cerevisiae alpha-glucosidase using pNPG as preincubated for 15 mins followed by substrate addition and measured after 30 mins by spectroscopic analysis
[18] = target: T1, Alpha-glucosidase; assay: Inhibition of Saccharomyces cerevisiae alpha-glucosidase using pNPG as preincubated for 10 mins followed by substrate addition and measured after 30 mins by spectroscopic analysis; format: protein assay
[19] = target: Alpha-glucosidase (Saccharomyces cerevisiae S288c) (UniProt P53341+P38158+P07265); assay: Inhibition of Saccharomyces cerevisiae alpha-glucosidase using p-NP-alpha-G as substrate at 100 uM by spectroscopic analysis; format: protein assay
[20] = system: Prunus dulcis; assay: Inhibition of almond beta-glucosidase using p-NP-beta-G as substrate at 100 uM by spectroscopic analysis
[21] = target: T1, Alpha-glucosidase; assay: Inhibition of yeast alpha-glucosidase using p-nitrophenyl-alpha-D-glucopyranoside as substrate incubated for 30 mins by spectrophotometric assay; format: protein assay
[22] = species on record: Rattus norvegicus; assay: Inhibition of rat jejunum maltase at 300 ug/ml; format: tissue-based; details: dose 300.0 µg/ml
[23] = Inhibition of rat jejunum sucrase; format: tissue-based
[24] = Inhibition of rat jejunum isomaltase; format: tissue-based
[25] = target: T1, Alpha-glucosidase; assay: Inhibition of yeast alpha-glucosidase assessed as release of p-nitrophenol using PNPG as substrate preincubated for 10 mins followed by substrate addition and measured after 35 mins by microplate photometer analysis; format: protein assay
[26] = target: T1, Alpha-glucosidase; assay: Inhibition of baker's yeast alpha-glucosidase using PNP as substrate preincubated for 30 mins followed by […] addition and measured after 1 mins by UV spectrophotometric analysis; format: protein assay

## CC(C)=CC/C(C)=C/Cc1c(O)cc2oc3c(O)ccc(O)c3c(=O)c2c1O
[1]
  IC50: 394 µM
[2]
  IC50: 6.9 µM
[3]
  IC50: 35.3 µM
[4]
  Ki: 2.8 µM

## O=c1c2ccccc2oc2cc(O)cc(O)c12
[5]
  IC50: 35.2 µM

## CC1(C)C=Cc2c(cc3oc4c(O)c5c(cc4c(=O)c3c2O)C=CC(C)(C)O5)O1
[6]
  IC50: > 100 µM

## C=C(C)/C=C/c1c(OC)c(O)cc2oc3cc4c(c(O)c3c(=O)c12)CC(O)C(C)(C)O4 (stereo not given)
[2]
  IC50: 30.5 µM
[3]
  IC50: 102.5 µM
[4]
  Ki: 23 µM

## COc1cc(OCC=C(C)C)c2c(=O)c3c(O)ccc(OC)c3oc2c1
[7]
  inhibition: 42.1%

## COC(=O)c1c(O)c(O)cc2oc3c(Cl)c(C)c(Cl)c(O)c3c(=O)c12
[8]
  IC50: 40 µM

## C=CC(C)(C)c1c(O)ccc2c(=O)c3c(O)c(CC=C(C)C)c(OC)c(O)c3oc12
[6]
  IC50: 8.9 µM

## C[C@H]1O[C@H](O[C@H]2[C@H](O)[C@@H](O)[C@@H](O[C@H]3[C@H](O)[C@@H](O)C(O)O[C@@H]3CO)O[C@@H]2CO)[C@H](O)[C@@H](O)[C@@H]1N[C@H]1C=C(CO)[C@@H](O)[C@H](O)[C@H]1O (stereo not given in full) [ACARBOSE]
[9]
  IC50: 2.39 mg/L (≈ 3.7 µM)
[10]
  inhibition: 5.4%
[11]
  IC50: 1820 µM
[12]
  inhibition: 50%

## O=c1c2cc(O[C@H]3O[C@@H](O)[C@H](O)[C@@H](O)[C@@H]3O)c(O)cc2oc2cc(O)c([C@H]3O[C@@H](CO)[C@H](O)[C@@H](O)[C@@H]3O)cc12
[9]
  IC50: 158 mg/L (≈ 285 µM)

## O=c1c2cc(O)c(O)cc2oc2c([C@H]3O[C@@H](CO)[C@H](O)[C@@H](O)[C@@H]3O)c(O)cc(O)c12
[13]
  IC50: 76.98 mg/L (≈ 182 µM)
[14]
  inhibition: 50%

## C=C(C)/C=C/c1c(O)c(CC=C(C)C)c2oc3c(O)ccc(O)c3c(=O)c2c1O
[1]
  IC50: 84 µM
[2]
  IC50: 10.8 µM
[3]
  IC50: 37.7 µM
[4]
  Ki: 8.5 µM

## O=c1c2cc(O)ccc2oc2cccc(O)c12
[15]
  IC50: 35.8 mg/L (≈ 157 µM)
[1]
  IC50: 145 µM

## C=C(C)C1Cc2c(cc3oc4cc(O)c(OC)c(CC=C(C)C)c4c(=O)c3c2O)O1 (stereo not given) [MANGOSTENONE F]
[2]
  IC50: 21 µM
[3]
  IC50: 191.2 µM
[4]
  Ki: 18.1 µM

## CC(C)=CC/C(C)=C/Cc1c(O)c(CC=C(C)C)c2oc3c(O)ccc(O)c3c(=O)c2c1O
[1]
  IC50: 227 µM

## O=c1c2c(O)cc(O)cc2oc2ccc(O)c(O)c12
[5]
  IC50: 23.2 µM

## C=C(C)/C=C/c1c(OC)cc2oc3cc(O)c(OC)c(/C=C/C(=C)C)c3c(=O)c2c1O
[2]
  IC50: 14.4 µM
[3]
  IC50: 192 µM
[4]
  Ki: 14.8 µM

## CC(C)=CCc1c(O)cc2oc3ccc(O)cc3c(=O)c2c1O
[6]
  IC50: > 100 µM

## C=C(C)/C=C/c1c(O)cc2oc3cc(O)c(OC)c(CC(=O)C(=C)C)c3c(=O)c2c1O
[2]
  IC50: 9.8 µM
[3]
  IC50: 85.7 µM
[4]
  Ki: 8.1 µM

## COC(=O)c1c(O)ccc2oc3cc(C(=O)O)cc(O)c3c(=O)c12
[16]
  IC50: 260 µM

## COc1cc(O)c2c(=O)c3c(O)c(O[C@@H]4OC[C@@H](O)[C@H](O)[C@H]4O[C@@H]4O[C@@H](C)[C@H](O)[C@@H](O)[C@H]4O)ccc3oc2c1
[17]
  IC50: 765 µM
[18]
  IC50: 36 µM

## O=c1c2c(O)cc(O)cc2oc2cc(O)cc(O)c12
[5]
  IC50: 39 µM

## COc1cc(O[C@H]2O[C@@H](CO)[C@H](O)[C@H](O)[C@@H]2O)c2c(=O)c3ccc(OC)c(OC)c3oc2c1
[10]
  inhibition: 98.8%

## C=C(C)/C=C/c1c(O)cc2oc3cc(O)c(O)c(/C=C/C(=C)C)c3c(=O)c2c1O
[2]
  IC50: 1.5 µM
[3]
  IC50: 17.5 µM
[4]
  Ki: 1.4 µM

## COc1cc(O)c2c(=O)c3c(OC)c(O)c(O)cc3oc2c1
[5]
  IC50: 44.5 µM

## COc1cc(OC/C=C(\C)C/C=C(\C)CC=C(C)C)c2c(=O)c3c(O)ccc(OC)c3oc2c1
[7]
  inhibition: 66.2%

## COc1cc(OC/C=C(\C)C/C=C(\C)C/C=C(\C)C/C=C(\C)C/C=C(\C)C/C=C(\C)C/C=C(\C)C/C=C(\C)CC=C(C)C)c2c(=O)c3c(O)ccc(OC)c3oc2c1
[7]
  inhibition: 34.5%

## OC[C@H]1NC[C@H](O)[C@@H](O)[C@@H]1O
[19]
  inhibition: 79.6%
[20]
  inhibition: 81.2%

## CC1(C)C=Cc2c(cc3oc4ccc(O)cc4c(=O)c3c2O)O1
[6]
  IC50: > 100 µM

## C=C(C)/C=C/c1c(O)cc2oc3cc(O)c(OC)c(/C=C/C(=C)C)c3c(=O)c2c1O
[2]
  IC50: 5 µM
[3]
  IC50: 53.3 µM
[4]
  Ki: 7.3 µM
[21]
  IC50: 11.4 µM

## COc1cc(OC/C=C(\C)CC=C(C)C)c2c(=O)c3c(O)ccc(OC)c3oc2c1
[7]
  inhibition: 30.9%

## CC(C)=CCc1cc2c(=O)c3c(O)c4c(cc3oc2c(O)c1O)OC(C)(C)C=C4
[6]
  IC50: 29.36 µM

## C=Cc1cc2oc3cc(O)cc(O)c3c(=O)c2c(OC)c1O
[5]
  IC50: 26.3 µM

## O=c1c2cc(O)c(O)cc2oc2cc(O)c([C@H]3O[C@@H](CO)[C@H](O)[C@@H](O)[C@@H]3O)c(O)c12
[9]
  IC50: 96.1 mg/L (≈ 228 µM)
[22]
  inhibition: 42%
[23]
  IC50: 87 mg/L (≈ 206 µM)
[14]
  inhibition: 53%
[24]
  IC50: 216 mg/L (≈ 511 µM)
[11]
  IC50: 52200 µM

## CC(C)=CC/C(C)=C/COc1cc(O)c2c(=O)c3ccccc3oc2c1
[7]
  inhibition: 43.1%

## COc1c(CC=C(C)C)c(O)c2c(=O)c3c(O)ccc(O)c3oc2c1CC=C(C)C
[1]
  IC50: 76 µM

## COc1c(O)cc2oc3cc(O)c(C/C=C(\C)COC(C)=O)c(O)c3c(=O)c2c1C/C=C(/C)CC=C(C)C
[25]
  IC50: 70.3 µM
[21]
  IC50: 18.2 µM

## O=c1c2cc(O)ccc2oc2cc(O)cc(O)c12
[15]
  IC50: 3.2 mg/L (≈ 13.1 µM)
[26]
  IC50: 14.7 µM

## C=C(C)/C=C/c1c(O)c(CC=C(C)C)c2oc3c(O)cccc3c(=O)c2c1O
[2]
  IC50: 21.5 µM
[3]
  IC50: 137.2 µM
[4]
  Ki: 12.3 µM

## COC(=O)c1cc(O)cc2oc3cc(C)cc(O)c3c(=O)c12
[16]
  IC50: 2980 µM

## CC(C)=CCOc1cc(O)c2c(=O)c3ccccc3oc2c1
[7]
  inhibition: 31%
